Tests used:
IL-6 level, PC3 cells = experiment: IL-6 level ELISA, PC3; type: cell-based, human; conditions: PC3, 72 h; for IL-6 Concentration: compound at IC50 concentration, ELISA; for reduction of IL-6 level: IC50 concentration, vs control
Procedure: (§1) Because of the low secretion of IL-6 by leukemic cells compared to solid tumors, and in addition to the lack of IL-6 receptors in K-562 cells, studies of the effect of derivatives 1–3, 8, and 9 on the inhibition of IL-6 release were carried out on primary and secondary solid tumor cells (SW480, SW620, and PC3). A remarkable inhibition of the IL-6 level was denoted for both colon cancer cell lines. Compound 2, identified as the strongest inhibitor, reduced the interleukin level by 54% (in SW480 cells) and 63% (SW620 cells). A significant effect was also observed in these cells for its structural isomer 3 (39% and 23% of inhibition, respectively). Additionally, compound 3 considerably affected the IL-6 level produced by PC3 cells, and reduced it by 33%. Similarly, the treatment with derivative 1 was effective for both colon cancer cells. In its presence, IL-6 release decreased by 28–36%, as compared to controls. For monosubstituted derivatives 8 and 9, the observed IL-6-reducing influence was weaker. They both inhibited IL-6 secretion in SW480 and SW620 cell lines by 25–32%. In contrast to compound 9, thiourea 8 additionally diminished the cytokine level in PC3 cells by 26%.
(§2) The IL-6 concentration in all studied cancer cells and normal HaCaT cell lines was measured by an ELISA kit (Diaclon SAS Besancon CEDEX, Besançon, France). […] IL-6 in cell culture supernatant was measured using the enzyme-linked immunosorbent assay in accordance with the manufacturer’s protocol.

SW620 cells [1] = experiment: MTT assay, SW620; type: cell-based, human; conditions: Homo sapiens, SW-620, 72 h, 50% growth inhibition
Procedure: (§3) As a first step in assessing their cytotoxic properties, all thioureas of the series were assayed against four human carcinoma cell lines, such as SW480 (primary colon cancer), SW620 (metastatic colon cancer), PC3 (metastatic prostate cancer), and K-562 (chronic myelogenous leukemia), as well as against the normal cell line HaCaT (immortalized human keratinocytes). Table 1 lists the compound concentrations that produced 50% of growth inhibition (IC50, μM), generated by the MTT method, in comparison with two commonly used chemotherapeutic agents, doxorubicin and cisplatin.
(§4) The human primary (SW480), metastatic (SW620) colon cancer, metastatic prostate cancer (PC3), chronic myelogenous leukemia (K-562), and human immortal keratinocyte (HaCaT) cell lines were purchased from the American Type Culture Collection (ATCC, Rockville, MD, USA). The cells were cultured in medium according to protocols (MEM for SW480 and SW620, RPMI 1640 for PC3 and K-562, and DMEM for HaCaT cells), supplemented with 10% FBS, penicillin (100 U/mL) and streptomycin (100 μg/mL), and cultured in a 37 °C/5% CO2 humidified incubator. The cells were cultured until appropriate confluence was achieved (80–90%). Next, they were harvested by treatment with 0.25% trypsin (Gibco Life Technologies, Waltham, MA, USA) excluding the non-adherent K-562 cell line and used for studies.
(§5) Cells without the studied compounds in medium were used as a control.
(§6) The cell viability was assessed by determination of MTT salt [3-(4,5-dimethylthiazol-2-yl)-2,5-diphenyltetrazoliumbromide] conversion by mitochondrial dehydrogenase. The MTT assay was performed as previously described. Alternatively, non-adherent leukemic cells were centrifuged in a microplate centrifuge (400× g, 5 min) during the collection stages. Experiments were repeated three times. Cell viability was presented as a percent of MTT reduction in the treated cells versus the control cells. The number of viable cells cultured without the studied compounds was assumed as 100%. A decreased relative MTT level indicated decreased cell viability. Thiourea compounds with the highest cytotoxic potential assessed by MTT determination (with the lowest IC50) were chosen for subsequent assessments of cytotoxicity mechanisms.

PC3 cells [2] = experiment: MTT assay, PC3; type: cell-based; conditions: Homo sapiens, PC-3, 72 h, 50% growth inhibition
Procedure: as §3, §4, §5, §6

IL-6 level, SW620 cells = experiment: IL-6 level ELISA, SW620; type: cell-based, human; conditions: SW620, 72 h; for reduction (inhibition) of IL-6 level: IC50 concentration, vs control; for IL-6 Concentration: compound at IC50 concentration, ELISA
Procedure: as §1, §2

HaCaT cells = experiment: Annexin V-FITC/PI flow cytometry, HaCaT; type: cell-based, human; conditions: 72 h, IC50 concentration, Annexin V-FITC/PI
Procedure: (§7) To estimate the mechanism of anticancer activity of the selected compounds 1–3, 8, and 9, their effect on both early and late apoptosis was evaluated by flow cytometry analysis. […] Additionally, visible late apoptosis-inducing properties in these cell lines were denoted for the compound 9 (47% ± 3.0%), which was twice as strong towards the colon tumor cells mentioned above. The apoptotic properties of analogs 3 and 8 in K-562 cells varied from 30% ± 1.6% to 33% ± 2.3%. […] Whereas the apoptosis-generating influence of derivatives 2 and 3 on normal keratinocytes was higher (29% and 23%), their selectivity measured by MTT methods is favorable. The obtained results are in agreement with the IC50 values assigned to pathological cancer cell lines. The cells were cultured and harvested under the conditions described in Section 3.2.1. […] The effect of these compounds on the process of early and late apoptosis and necrosis was determined as described previously by dual staining with Annexin V:FITC and propidium iodide, according to the manufacturer’s protocol (Becton Dickinson). The cells that were Annexin V:FITC positive and PI negative were identified as early apoptotic, and Annexin V:FITC and PI positive as late apoptotic or necrotic.

SW620 cells [3] = experiment: Trypan blue assay, SW620; type: cell-based, human; conditions: SW620, 72 h; for reduction in live cell number: vs control; for Cell Number × 10^5 / Viability (%): compound at IC50 concentration
Procedure: In order to estimate the tumor and normal cell population density and their viability after treatment with compounds 1–3, 8, and 9, the trypan blue dye exclusion assay was performed. The live cell number of all cancerous cells incubated for 72 h with the studied thioureas was considerably lower in comparison with the controls (Table 2; Figure S1A). The highest reduction in cell amount was denoted for both colon SW480 and SW620 cells treated with the dichlorophenyl derivative 2, and it accounted for 93%. […] Similarly, a noticeable decline in both colon cancer cell populations was observed after treatment with the ortho-substituted compound 8. The number of live cells equaled 12% and 18%, respectively, as compared to controls. This thiourea also led to a reduction of PC3 cells of 38%, and leukemia K-562 cell lines of 27%. The number of SW620 and PC3 cells decreased by 72% and 63% in the presence of para-substituted compound 9. However, the reducing influence of this thiourea on the number of other cancerous cells was at the level of 21–32%. […] A significant effect on the other studied pathological cells was also noticed and accounted for 32–46%. Furthermore, the derivative 3 reduced the amount of live cancer cells by 32–59%, of which its decreasing impact on colon cancer cells was the greatest.
The live cell count was assessed by the trypan blue exclusion dye assay using an automated cell counter (CountessTM Invitrogen, Waltham, MA, USA). Untreated cells were used as the control.

PC3 cells [4] = experiment: Annexin V-FITC/PI flow cytometry, PC3; type: cell-based, human; conditions: PC3, 72 h, IC50 concentration
Procedure: as §7

SMILES	IL-6 Concentration (IL-6 level, PC3 cells)	IC50 (SW620 cells [1])	IC50 (PC3 cells [2])	reduction (inhibition) of IL-6 level (IL-6 level, SW620 cells)	IL-6 Concentration (IL-6 level, SW620 cells)	cells in late apoptosis (HaCaT cells)	reduction in live cell number (SW620 cells [3]; IC50 concentration)	Cell Number × 10^5 (SW620 cells [3])	Viability (%) (SW620 cells [3])	reduction of IL-6 level (IL-6 level, PC3 cells)	melting point	cells in late apoptosis (PC3 cells [4])	decrease of cell viability (SW620 cells [3]; IC50 concentration)	number of live cells as compared to controls (SW620 cells [3]; IC50 concentration)
FC(F)(F)c1cccc(NC(=S)Nc2ccc(Cl)c(Cl)c2)c1 [Compound 2, 1-(3,4-dichlorophenyl)-3-[3-(trifluoromethyl)phenyl]thiourea]	9.1 ± 0.04 pg/mL	1.5 ± 0.72 µM	31.7 ± 2.07 µM	63%	2.8 ± 0.03 pg/mL	29%	93%	0.4 ± 0.22 × 10^5	42 ± 1.30%	–	–	–	–	–
FC(F)(F)c1cccc(NC(S)=Nc2ccc(Cl)cc2Cl)c1 [Compound 3, 1-(2,4-dichlorophenyl)-3-[3-(trifluoromethyl)phenyl]thiourea]	7.3 ± 0.06 pg/mL	5.8 ± 0.76 µM	13.7 ± 7.04 µM	23%	5.9 ± 0.03 pg/mL	23%	–	2.4 ± 0.20 × 10^5	93 ± 2.33%	33%	–	–	–	–
Fc1ccc(NC(=S)Nc2cccc(C(F)(F)F)c2)cc1Cl [Compound 1, 1-(3-chloro-4-fluorophenyl)-3-[3-(trifluoromethyl)phenyl]thiourea]	9.6 ± 0.02 pg/mL	9.4 ± 1.85 µM	53.6 ± 2.94 µM	–	4.9 ± 0.01 pg/mL	–	–	1.3 ± 0.25 × 10^5	79 ± 1.30%	–	–	–	–	–
FC(F)(F)c1ccc(NC(=S)Nc2cccc(C(F)(F)F)c2)cc1 [Compound 8, 1-[3-(trifluoromethyl)phenyl]-3-[4-(trifluoromethyl)phenyl]thiourea]	8.1 ± 0.08 pg/mL	7.6 ± 1.75 µM	6.9 ± 1.64 µM	–	5.8 ± 0.06 pg/mL	–	–	1.0 ± 0.20 × 10^5	55 ± 1.11%	26%	134 to 136 °C	25% ± 1.5%	45%	18%
FC(F)(F)c1cccc(NC(=S)Nc2ccc(Cl)cc2)c1 [Compound 9, 1-(4-chlorophenyl)-3-[3-(trifluoromethyl)phenyl]thiourea]	9.9 ± 0.03 pg/mL	6.7 ± 1.74 µM	22.6 ± 1.25 µM	–	5.2 ± 0.03 pg/mL	–	72%	1.6 ± 0.11 × 10^5	84 ± 3.08%	–	–	–	–	–
